System: A/NJ/15/2007 (H1N1 - H274Y)
Assay type: cell-based, influenza A virus

## Cl.Cl.Nc1ncnc2c([C@@H]3N[C@H](CO)[C@@H](O)[C@H]3O)c[nH]c12 [compound 12i, (2S,3S,4R,5R)-2-(4-amino-5H-pyrrolo[3,2-d]pyrimidin-7-yl)-5-(hydroxymethyl)pyrrolidine-3,4-diol dihydrochloride]
  EC50: 1.39 µg/mL

From patent publication US9580428B2, “Compositions and methods for inhibiting viral polymerase” (priority 2012, dated 2017)
